Experimental data published in paper PMC8894198, “Biosynthetic Microcin J25 Exerts Strong Antibacterial, Anti-Inflammatory Activities, Low Cytotoxicity Without Increasing Drug-Resistance to Bacteria Target” (Frontiers in Immunology, 2022).
“Also recorded” adds a separate entry of the source. Where a SMILES comes first, the peptide text is derived from it. Bridges are numbered along the chain shown (N, C = ends).

Assays:
E. coli K88 [1] = type: cell-based; details: sublethal levels, daily sequential passages
Description: To quantify the production status of the bacteria, the bacterial density was measured after incubating for 24 h. Cultures with the second highest concentration allowed to grow (OD600 ≥ 2) were diluted 1:100 with MccJ25 MHB at different concentrations than those described above. Cultures that grew above the indicated MIC levels were plated on LB agar plates, and their MIC levels were determined by the broth macrodilution method.

E. coli K88 [2] = assay: MIC variability (cross-resistance) after 5 days at sub-MIC; type: cell-based; details: after culture under ampicillin (0.25 × MIC) for 5 days
Description: A 1:100 dilution of the bacteria was performed daily in the above MHB. Aliquots of the culture medium were used daily for 5 days thereafter to determine the MICs of ampicillin, tetracycline, aureomycin, and kanamycin. This study was performed based on our previous study ([29]).

in vitro [3] = assay: in vitro
Description: (§1) The resistance of MccJ25 to pepsin, trypsin and chymotrypsin was evaluated based on previous studies ([26]), with minor modifications. E. coli K88 cells were prepared (approximately 1 × 10^7 CFU/mL), and 1 mL of the bacterial suspension and MccJ25 were transferred into 9 mL of medium. For the control, MccJ25 was not added. LB agar inoculated with E. coli K88 cells (~10^5 viable cells/mL) was poured onto a plate containing an Oxford cup to form individual wells. Then, 2 and 4 h MccJ25 (1 × MIC) previously subjected to different treatments were added to the wells. The agar overlay was incubated overnight at 37°C, and the diameter of the growth inhibition zone was measured.
(§2) Figure 3 Stability and activity of MccJ25 in different conditions and biological fluids. Various concentration of MccJ25 was incubated with different temperatures (A), pH values (B), (C) SIF, SGF, and serum. Proteases (D-F) for different indicated times. Afterwards, the amount of the remaining MccJ25 was determined by RP-HPLC. […] NE: negative control; Chy: chymotrypsin. […] Effects of temperature (G), RT: room temperature, pH values (H), proteases (I), SGF (J), SIF (K), and serum (L) on the inhibition of E coli K88 by MccJ25. The zone of inhibition is often used to clarify the antimicrobial activity of MccJ25. […] Chy refers to chymotrypsin. Data are presented as the mean of 6 biological replicates ± standard error of mean form.

chymotrypsin = assay: in vitro; details: RP-HPLC
Description: as §1, §2

Caco-2 cells [4] = assay: MTT cytotoxicity assay; type: cell-based, human; details: different concentrations of MccJ25 up to 512 μg/mL, 24 h, 37°C; vs control; n = 6
Description: (§3) To test whether MccJ25 could have an effect on the metabolic activity of the cells, the necessary MTT assay was performed (Roche Molecular Biochemistry, Mannheim, Germany) as previously described ([28], [29]). The whole operation process can be briefly summarized as follows: first, various concentration gradients of MccJ25 solution were added, the ambient temperature of the cell secondary incubation was maintained at 37°C, the CO2 concentration was maintained at 5%, and the incubation time needed to reach 24 h. The control group was the cells without any treatment. Afterwards, 20 μL of MTT solution (concentration 5 mg/mL, medium DPBS) was added to all wells and incubated for 3.5 h at a temperature of 37°C and a CO2 concentration of 5%. Components of the medium were removed by centrifugation, and the MTT metabolites were resuspended in 200 μL of dimethyl sulfoxide. The absorbance value at 560 nm was measured, and the background value was the absorbance at 670 nm, which needed to be subtracted from the background value to obtain the absorbance value.

IPEC-J2 cells = details: previous study; ref [29]; cited from earlier work
Text: Microcins, AMPs, are a large class of antimicrobial agents that can be employed in the treatment of various infectious diseases. […] Cytotoxicity, including the hemolysis of erythrocytes, is one of the main factors limiting the practical application of AMPs. Therefore, it is crucial to have a clear understanding of the c ...

RAW264.7 cells [5] = assay: MTT cytotoxicity assay; type: cell-based, murine; details: different concentrations of MccJ25 up to 512 μg/mL, 24 h, 37°C; vs control; n = 6
Description: as §3

in vitro [6] = assay: in vitro; remark: listed apart in the source
Description: (§4) The simulated gastric fluid (SGF) and simulated intestinal fluid (SIF) were mainly based on the relevant contents of the Chinese Pharmacopoeia as described previously ([26]). SGF was configurated with 10 mg/mL pepsin, 0.03 M NaCl was used to blend the pH to 1.5, while SIF was configured with 10 mg/mL trypsin, 0.05 M KH2PO4 was used to blended pH as 7. SGF and SIF were then measured separately, and the antimicrobial activity of MccJ25 in serum was determined. E. coli K88 cells were grown in MHB (Difco Laboratories, Detroit, MI, USA). In short, 1 mL of the bacterial suspension and MccJ25 were transferred into 9 mL of medium. The control group was as follows: no MccJ25 was added to it. E. coli K88 cells with a live cell count maintained at approximately 10^5 cells per milliliter were inoculated on LB agar, which was then poured into plates equipped with Oxford cups, thus forming wells. Then, MccJ25 (1 × MIC) previously treated with SGF, SIF and serum for 2, 4, and 6 h was added to these wells. One of the agar substances covering the wells needs to be incubated overnight at 37°C, and finally, the size of its growth inhibition area, i.e., the diameter, needs to be determined.
as §2

pig erythrocytes (pRBCs) = details: 512 μg/mL (highest concentration), 8% RBCs in PBS, 37°C, 1 h, A414
Description: (§5) Fresh mouse/pig erythrocytes (mRBCs/pRBCs) were collected from well-grown animals, centrifuged at 4,200 rpm and washed well with phosphate-buffered saline (PBS) to ensure that their supernatants were free of impurities and remained clear. The liquid was added to the 96-well plate after 2-fold dilution of MccJ25 prepared with PBS, and the final concentration of RBCs was introduced at 8%. The plate was stirred less vigorously to homogenize the liquid and incubated at 37°C for 1 h. The supernatant was then centrifuged at 4,500 rpm for 10 min, and its absorbance value at 414 nm was measured. Three replicate groups were set up for all the above experiments, and the percentage hemolysis was calculated as follows: percentage hemolysis = [(A414 in peptide solution - A414 in PBS)/(A414 in […] - A414 in PBS)]. ×100, where 100% hemolysis refers to the absorbance of RBCs exposed to 1% Triton X-100 in the environment and 0% hemolysis refers to the absorbance of RBCs exposed to PBS. The positive control used in this experiment was melittin.

[7] = tested on: mouse erythrocytes (mRBCs); details: 512 μg/mL (highest concentration), 8% RBCs in PBS, 37°C, 1 h, A414
Description: as §5

Caco-2 cells [8] = details: 2 to 512 μg/mL MccJ25, 24 h, 37°C; n = 6
Description: (§6) Certain adjustments were made to Dulbecco’s modified Eagle’s medium (DMEM), i.e., 20% fetal bovine serum (FBS) was added, and human colon cancer cell line Caco-2 and murine cell line macrophage RAW264.7 cells were inoculated into the adjusted medium, with the inoculum density maintained at 2 × 10^4 cells/mL, placed in 96-well plates until the overall confluence ratio reached 80% to 90%, respectively.
(§7) The secretion of the cell membrane enzyme lactate dehydrogenase (LDH) was measured on the basis of a colorimetric assay. Caco-2 and RAW264.7 cells (2 × 10^4 cells/well) as controls without or with concentrations of 2 to 512 μg/mL MccJ25 were incubated for 24 h at 37°C in 5% CO2. A simple step was to transfer 100 μL of cell culture medium from each well to a new 96-well plate and measure the activity of LDH based on the LDH cytotoxicity assay kit (Clontech, Mountain View, CA, USA) according to the manufacturer’s instructions. The catalyst and dye solutions were mixed well and added to the wells containing cell culture medium and then incubated for 30 min at room temperature. The absorbance at 490 and 670 nm was measured with a microplate reader (Model SynergyMx, BioTek, Winooski, VT, USA). Absorbance values were corrected by subtracting the […].

RAW264.7 cells [9] = details: 2 to 512 μg/mL MccJ25, 24 h, 37°C; n = 6
Description: as §6, §7

[10] = remaining peptide by RP-HPLC, n = 6
Description: as §2

[11] = RP-HPLC
Description: as §4
Figure 3 Stability and activity of MccJ25 in different conditions and biological fluids. […] Afterwards, the amount of the remaining MccJ25 was determined by RP-HPLC. […]

SMILES: CN(C)[C@@H]1C(O)=C(C(N)=O)C(=O)[C@@]2(O)C(O)=C3C(=O)c4c(O)cccc4[C@@](C)(O)[C@H]3C[C@@H]12 [tetracycline]
- time of serial passage until resistance (E. coli K88 [1]): ≤ 3 days
- elevation of the MIC of the antibiotic (E. coli K88 [2]): 2 fold

SMILES: CC[C@H](C)[C@H](NC(=O)CNC(=O)[C@@H](NC(=O)[C@H](Cc1ccccc1)NC(=O)[C@H](Cc1ccc(O)cc1)NC(=O)[C@@H]1CCC(=O)NCC(=O)NCC(=O)N[C@@H](C)C(=O)NCC(=O)N[C@@H](Cc2cnc[nH]2)C(=O)N[C@@H](C(C)C)C(=O)N2CCC[C@H]2C(=O)N1)C(C)C)C(=O)NCC(=O)N[C@H](C(=O)N1CCC[C@H]1C(=O)N[C@H](C(=O)N[C@@H](CO)C(=O)N[C@@H](Cc1ccccc1)C(=O)N[C@@H](Cc1ccc(O)cc1)C(=O)NCC(=O)O)[C@@H](C)CC)[C@@H](C)O [MccJ25, microcin J25] (GGAGHVPEYFVGIGTPISFYG-OH; lactam N-8)
- metabolised at 1 h (in vitro [3]; chymotrypsin (isolated protease)): 70%
- remaining at 6 h (in vitro [3]; pepsin (isolated protease)): > 70%
- remaining at 6 h (in vitro [3]; trypsin (isolated protease)): > 70%
- level of intact MccJ25 exposed to chymotrypsin (chymotrypsin; 2 and 4 h): below the detection limit
- intact MccJ25 after exposure to chymotrypsin (chymotrypsin; after 6 h): below the detection limit
- cell viability (MTT) (Caco-2 cells [4]): nontoxic; also recorded: no significant differences in cell survival
- cytotoxicity (IPEC-J2 cells): not cytotoxic
- cell viability (MTT) (RAW264.7 cells [5]): nontoxic; also recorded: no significant differences in cell survival
- intact MccJ25 after 6 h of incubation in serum (in vitro [6]; 6 h, RP-HPLC): still present
- intact MccJ25 after 6 h of incubation in SIF (in vitro [6]; SIF pH 7, 10 mg/mL trypsin, 6 h, RP-HPLC): still present
- half-life (in vitro [6]; mouse, serum): 4 h
- half-life (in vitro [6]; simulated intestinal fluid (SIF) with 10 mg/mL trypsin, pH 7): 2 h
- hemolysis (pig erythrocytes (pRBCs)): 4.07%
- hemolysis [7]: 4.16%
- LDH activity (plasma membrane integrity) (Caco-2 cells [8]): did not stimulate LDH activity
- LDH activity (plasma membrane integrity) (RAW264.7 cells [9]): did not stimulate LDH activity
- stability of intact MccJ25 at high temperature ([10]; 121°C, 20 min): able to maintain its own steady state
- stability of intact MccJ25 at different pH ([10]; pH 2.0 to 9.0, 2 h): able to maintain its own steady state
- intact MccJ25 after 6 h of incubation in SGF ([11]; SGF pH 1.5, 10 mg/mL pepsin, 6 h): still present
- concentration of intact MccJ25 in SGF ([11]; SGF: 10 mg/mL pepsin, 0.03 M NaCl, pH 1.5, up to 6 h, n = 6): decreased slowly

SMILES: O=C(O)c1cn(C2CC2)c2cc(N3CCNCC3)c(F)cc2c1=O [ciprofloxacin]
- elevation of the MIC of the antibiotic (E. coli K88 [2]): 2 fold

SMILES: CC1(C)S[C@@H]2[C@H](NC(=O)[C@H](N)c3ccccc3)C(=O)N2[C@H]1C(=O)O [ampicillin]
- time of serial passage until resistance (E. coli K88 [1]): ≤ 4 days
- elevation of the MIC of the antibiotic (E. coli K88 [2]): 2 fold

SMILES: NC[C@H]1O[C@H](O[C@H]2[C@H](O)[C@@H](O[C@H]3O[C@H](CO)[C@@H](O)[C@H](N)[C@H]3O)[C@H](N)C[C@@H]2N)[C@H](O)[C@@H](O)[C@@H]1O [kanamycin]
- elevation of the MIC of the antibiotic (E. coli K88 [2]): 2 fold
